US12415770B2, “Modulators of liver receptor homologue 1 (LRH-1) and uses” (Emory University, priority 2017, dated 2025)
Like-named read-outs stand apart in the source and are kept apart here.

Tests used:
LRH-1 LBD = biological target: T1, LRH-1 LBD (Homo sapiens, UniProt O00482); test: Thermofluor (DSF) assay, purified LRH-1 LBD-His protein; format: binding; conditions: for ΔTm at 50 µM: read-out: ΔTm (mean +/− SEM) (° C.)
T1 construct: LRH-1 LBD (residues 299-541) in the pMSC7 vector was expressed in BL21 (DE3) pLysS E. coli; made in house; host or cells: E. coli BL21 (DE3) pLysS
T1 sequence (O00482 299-541): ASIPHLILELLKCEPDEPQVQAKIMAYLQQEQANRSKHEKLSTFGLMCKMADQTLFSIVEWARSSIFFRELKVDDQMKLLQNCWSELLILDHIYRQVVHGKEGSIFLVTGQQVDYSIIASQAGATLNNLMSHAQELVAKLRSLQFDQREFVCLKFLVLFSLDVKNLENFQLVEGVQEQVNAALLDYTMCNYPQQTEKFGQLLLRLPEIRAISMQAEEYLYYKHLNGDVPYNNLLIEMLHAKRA
Procedure: Thermofluor assays—Purified LRH-1 LBD-His protein (0.2 mg/ml) was incubated overnight with 50 μM of each compound at 4° C. The final DMSO concentration in the reactions was 1%. SYPRO orange dye (Invitrogen) was then added at a 1:1000 dilution. Reactions were heated at a rate of 0.5° C. per minute, using a StepOne Plus Real Time PCR System (ThermoFisher). […] Data were analyzed by first subtracting baseline fluorescence (ligands+SYPRO with no protein) and then fitting the curves using the Bolzman equation (GraphPad Prism, v6) to determine the Tm. […]

LRH-1 = biological target: T2, LRH-1 (Homo sapiens, UniProt O00482); test: Luciferase reporter assay (SHP-luc) in HeLa cells transfected with full-length LRH-1; format: cell-based; conditions: for EC50 / EC50 (μM): HeLa cells, SHP-luc reporter, 24 hours, 0.03-30 μM; for Relative Efficacy: fold increase over baseline (DMSO-treated cells) relative to the fold increase induced by RJW100
T2 construct: The transfected plasmids included full-length LRH-1 in a pCI vector; expressed in transfected cells; host or cells: HeLa
T2 sequence (O00482 whole entry): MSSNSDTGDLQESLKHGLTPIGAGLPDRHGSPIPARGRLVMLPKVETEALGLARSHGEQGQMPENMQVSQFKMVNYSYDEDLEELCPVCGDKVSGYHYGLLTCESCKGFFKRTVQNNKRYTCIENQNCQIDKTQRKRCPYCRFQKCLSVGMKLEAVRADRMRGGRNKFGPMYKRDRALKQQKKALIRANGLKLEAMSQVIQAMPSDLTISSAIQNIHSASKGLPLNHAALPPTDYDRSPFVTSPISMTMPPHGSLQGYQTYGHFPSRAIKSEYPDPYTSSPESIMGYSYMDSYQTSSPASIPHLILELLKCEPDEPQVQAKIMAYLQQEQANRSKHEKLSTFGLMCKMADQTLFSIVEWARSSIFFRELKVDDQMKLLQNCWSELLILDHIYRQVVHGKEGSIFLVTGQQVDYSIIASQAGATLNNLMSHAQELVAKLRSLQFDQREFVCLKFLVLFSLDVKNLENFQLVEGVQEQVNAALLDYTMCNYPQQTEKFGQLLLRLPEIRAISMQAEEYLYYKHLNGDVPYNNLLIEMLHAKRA
Procedure: EC50 and Relative Activity values were calculated from luciferase reporter assays.

[1] = 50 μM compound, relative to DLPC-bound LRH-1

Row | Compound | ΔTm at 50 µM (LRH-1 LBD; [1]) [°C] | EC50 (LRH-1) [µM] | Relative Efficacy (LRH-1) | other results
1 | C=C(c1ccccc1)[C@@]12CC[C@H](OC(N)=O)C1CC(CCCCCC)=C2c1ccccc1 (stereo partly drawn) [Compound 29-endo, (Endo or Exo)-5-hexyl-4-phenyl-3a-(1-phenylvinyl)-1,2,3,3a,6,6a-hexahydropentalen-1-yl carbamate] | 2.8 |  | 0 | EC50 (μM) (LRH-1): cnc
2 | C=C(c1ccccc1)C12CCC(C#N)C1CC(CCCCCC)=C2c1ccccc1 (stereo not drawn) [Compound 32-endo, (Endo or Exo)-5-hexyl-4-phenyl-3a-(1-phenylvinyl)-1,2,3,3a,6,6a-hexahydropentalene-1-carbonitrile] |  |  | 0 | ΔTm (mean +/− SEM) (° C.) (LRH-1 LBD; [1]): ns (Ns = Tm changes were less than 1° C.)
3 | C=C(c1ccccc1)[C@@]12CC[C@@H](O)[C@@H]1CC(CCCCO)=C2c1ccccc1 (relative stereo) [Compound 5e, Exo-5-(4-hydroxybutyl)-4-phenyl-3a-(1-phenylvinyl)-1,2,3,3a,6,6a-hexahydropentalen-1-ol] | 3.1 | 1.4 | 0.83 | 
4 | CCCCCCC1=C(c2ccccc2)[C@]2(C(C)c3ccccc3)CC[C@@H](O)C2C1 (stereo partly drawn) [Compound 39-exo, (Endo or Exo)-5-hexyl-4-phenyl-3a-(1-phenylethyl)-1,2,3,3a,6,6a-hexahydropentalen-1-ol] | 0.1 |  | 0.06 | 
5 | C=C(c1ccccc1)[C@@]12CC[C@@H](O)C1CC(CCCCCCCCOC(C)=O)=C2c1ccccc1 (stereo partly drawn) [Compound 47-endo, (Exo or Endo) 8-(6-hydroxy-3-phenyl-3a-(1-phenylvinyl)-1,3a,4,5,6,6a-hexahydropentalen-2-yl)octyl acetate] |  |  | 1.48 | ΔTm (mean +/− SEM) (° C.) (LRH-1 LBD; 50 μM compound, relative to DLPC-bound LRH-1, 50 µM): ns (Ns = Tm changes were less than 1° C.)
6 | C=C(c1ccccc1)[C@@]12CC[C@H](N=[N+]=[N-])C1CC(CCCCCC)=C2c1ccccc1 (stereo partly drawn) [Compound 31-endo, (Endo or Exo)-5-hexyl-4-phenyl-3a-(1-phenylvinyl)-1,2,3,3a,6,6a-hexahydropentalen-1-azide] | < 1 | 5 | 0.70 | 
7 | ((((endo or exo)-5-hexyl-4-phenyl-3a-(1-phenylvinyl)-1, 2, 3, 3a, 6,6a-hexahydropentalen-1-yl)oxy)carbonyl)sulfamic acid [Compound 40-endo] |  | > 30 | −0.2 | ΔTm (mean +/− SEM) (° C.) (LRH-1 LBD; [1]): 1.95 +/− 0.15 °C; stabilization of LRH-1-ligand complex / Tm shift (LRH-1 LBD; WT LRH-1): greatly stabilized the protein-ligand complex; LRH-1 activation (LRH-1; WT LRH-1): increased activation of LRH-1 compared to RJW100
8 | C=C(c1ccccc1)[C@@]12CC[C@@H](NC(C)=O)C1CC(CCCCCC)=C2c1ccccc1 (stereo partly drawn) [Compound 35-exo, N-((endo or exo)-5-hexyl-4-phenyl-3a-(1-phenylvinyl)-1,2,3,3a,6,6a-hexahydropentalen-1-yl) acetamide] | -1.1 | 17 |  | 
9 | C=C(c1ccccc1)[C@@]12CCC(O)C1CC(CCCCCCCCOP(=O)(OCC)OCC)=C2c1ccccc1 (stereo partly drawn) [Compound 53-exo, (Endo or Exo) diethyl (8-(6-hydroxy-3-phenyl-3a-(1-phenylvinyl)-1,3a,4,5,6,6a-hexahydropentalen-2-yl)octyl)phosphate] |  |  | 0.37 | ΔTm (mean +/− SEM) (° C.) (LRH-1 LBD; [1]): ns (Ns = Tm changes were less than 1° C.)
10 | C=C(c1ccccc1)[C@@]12CC[C@@H](N)C1CC(CCCCCC)=C2c1ccccc1 (stereo partly drawn) [Compound 33-exo, (Endo or Exo)-5-hexyl-4-phenyl-3a-(1-phenylvinyl)-1,2,3,3a, 6,6a-hexahydropentalen-1-amine] | -3 |  | 0.56 | 
11 | C=C(c1ccccc1)C12CCC(O)C1CC(CCCCOP(=O)([O-])OCC[N+](C)(C)C)=C2c1ccccc1 (stereo not drawn) [Compound 5g, 4-(6-exo-hydroxy-3-phenyl-3a-(1-phenylvinyl)-1,3a,4,5,6,6a-hexahydropentalen-2-yl)butyl (2-(trimethylammonio)ethyl) phosphate] | < 1 |  | 0.33 | EC50 (μM) (LRH-1): cnc
12 | C=C(c1ccccc1)[C@@]12CCC(O)C1CC(CCCCCCCCOP(=O)(OCC)OCC)=C2c1ccccc1 (stereo partly drawn) [Compound 53-endo, (Endo or Exo) diethyl (8-(6-hydroxy-3-phenyl-3a-(1-phenylvinyl)-1,3a,4,5,6,6a-hexahydropentalen-2-yl)octyl)phosphate] |  |  | 1.04 | ΔTm at 50 µM (LRH-1 LBD): < 1 °C

Second part, led by results:

Row | ΔTm at 50 µM (LRH-1 LBD; [1]) [°C] | EC50 (LRH-1) [µM] | Relative Efficacy (LRH-1) | Compound | other results
13 | < 1 | 2 | 2.74 | C=C(c1ccccc1)[C@@]12CC[C@@H](O)[C@@H]1CC(CCCCCCCCCOP(=O)([O-])OCC[N+](C)(C)C)=C2c1ccccc1 (relative stereo) [Compound 10g, 9-(6-exo-hydroxy-3-phenyl-3a-(1-phenylvinyl)-1,3a,4,5,6,6a-hexahydropentalen-2-yl)nonyl (2-(trimethylammonio)ethyl) phosphate] | 
14 | 4 | 0.7 | 1.52 | C=C(c1ccccc1)[C@@]12CC[C@@H](O)[C@@H]1CC(CCCCCCCCO)=C2c1ccccc1 (relative stereo) [Compound 9e, Exo-5-(8-hydroxyoctyl)-4-phenyl-3a-(1-phenylvinyl)-1,2,3,3a,6,6a-hexahydropentalen-1-ol] | 
15 | 2.4 |  | 1.57 | C=C(c1ccccc1)C12CCC(O)C1CC(CCCCCO)=C2c1ccccc1 (stereo not drawn) [Compound 6e, Exo-5-(5-hydroxypentyl)-4-phenyl-3a-(1-phenylvinyl)-1,2,3,3a,6,6a-hexahydropentalen-1-ol] | EC50 (μM) (LRH-1): cnc
16 | 1.4 |  | 0.85 | C=C(c1ccccc1)C12CC[C@@H](O)C1CC(CCCCCC)=C2c1cccc(O)c1 (mixture of isomers) [Compound 15f, (Exo)-5-hexyl-4-(3-hydroxyphenyl)-3a-(1-phenylvinyl)-1,2,3,3a,6,6a-hexahydropentalen-1-ol] | EC50 (μM) (LRH-1): cnc
17 | < 1 | > 30 | 2.8 | C=C(c1ccccc1)[C@@]12CC[C@@H](O)C1CC(CCCCCC)=C2c1cc(O)cc(F)c1 (mixture of isomers) [Compound 18f, (Exo)-4-(3-fluoro-5-hydroxyphenyl)-5-hexyl-3a-(1-phenylvinyl)-1,2,3,3a,6,6a-hexahydropentalen-1-ol] | 
18 | < 1 |  | 0.00 | C=C(c1ccccc1)C12CCC(O)C1CC(CCCCCOP(=O)([O-])OCC[N+](C)(C)C)=C2c1ccccc1 (stereo not drawn) [Compound 6g, 5-(6-exo-hydroxy-3-phenyl-3a-(1-phenylvinyl)-1,3a,4,5,6,6a-hexahydropentalen-2-yl)pentyl (2-(trimethylammonio)ethyl) phosphate] | EC50 (μM) (LRH-1): cnc
19 | < 1 |  | 0.00 | C=C(c1ccccc1)C12CCC(O)C1CC(CCCCCCOP(=O)([O-])OCC[N+](C)(C)C)=C2c1ccccc1 (stereo not drawn) [Compound 7g, 6-(6-exo-hydroxy-3-phenyl-3a-(1-phenylvinyl)-1,3a,4,5,6,6a-hexahydropentalen-2-yl)hexyl(2-(trimethylammonio)ethyl) phosphate] | EC50 (μM) (LRH-1): cnc
20 | < 1 | 24 | 3.8 | C=C(c1ccccc1)[C@@]12CC[C@@H](O)C1CC(CCCCCC)=C2c1cc(N)ccc1F (mixture of isomers) [Compound 16g, (Exo)-4-(5-amino-2-fluorophenyl)-5-hexyl-3a-(1-phenylvinyl)-1,2,3,3a,6,6a-hexahydropentalen-1-ol] | 
21 | -2.4 | 5 | 2.48 | C=C(c1ccccc1)[C@@]12CC[C@@H](O)[C@@H]1CC(CCCCCCCCCCOP(=O)([O-])OCC[N+](C)(C)C)=C2c1ccccc1 (relative stereo) [Compound 11g, 10-(6-exo-hydroxy-3-phenyl-3 a-(1-phenylvinyl)-1,3a,4,5,6,6a-hexahydropentalen-2-yl)decyl (2-(trimethylammonio)ethyl) phosphate] | 
22 | < 1 | > 30 | 2.7 | C=C(c1ccccc1)[C@@]12CC[C@@H](O)C1CC(CCCCCC)=C2c1cc(N)ccc1C (mixture of isomers) [Compound 17g, (Exo)-4-(5-amino-2-methylphenyl)-5-hexyl-3a-(1-phenylvinyl)-1,2,3,3a,6,6a-hexahydropentalen-1-ol] | 
23 | 3.7 | 0.2 | 1.26 | C=C(c1ccccc1)[C@@]12CC[C@@H](O)[C@@H]1CC(CCCCCCCO)=C2c1ccccc1 (relative stereo) [Compound 8e, Exo-5-(7-hydroxyheptyl)-4-phenyl-3a-(1-phenylvinyl)-1,2,3,3a,6,6a-hexahydropentalen-1-ol] | 
24 | < 1 | 2 | 2.83 | C=C(c1ccccc1)C12CCC(O)C1CC(CCCCCCCCCCO)=C2c1ccccc1 (stereo not drawn) [Compound 11e, Exo-5-(10-hydroxydecyl)-4-phenyl-3a-(1-phenylvinyl)-1,2,3,3a,6,6a-hexahydropentalen-1-ol] | 
